Reference: ChEMBL document CHEMBL5036357, “2,3-Difunctionalized Benzo[b]thiophene Scaffolds Possessing Potent Antiangiogenic Properties” (J Med Chem, 2022)
Calls of active or inactive are those of the source. No cut-off for these calls is given here.

Assays:
[1] = test system: HUVEC; experiment: Anti-angiogenesis activity against HUVEC cells assessed as tubule formation at 250 nM incubated for 6 hrs by inverted fluorescence microscopic analysis relative to control; type: functional, Homo sapiens
[2] = test system: HUVEC; experiment: Anti-angiogenesis activity against HUVEC cells assessed as tubule formation at 10 uM incubated for 6 hrs by inverted fluorescence microscopic analysis relative to control; type: functional, Homo sapiens
[3] = species on record: Mus musculus; experiment: Antiangiogenic activity in BALB/c mouse assessed as reduction in neovascularization by measuring reduction in hemoglobin concentration at 2 uM by matrigel plug assay; type: functional, organism-based
[4] = test system: HUVEC; experiment: Anti-angiogenesis activity against HUVEC cells assessed as reduction in tubule formation at 50 nM incubated for 6 hrs by inverted fluorescence microscopic analysis relative to control; type: functional, Homo sapiens; design: scale not given: the % may be the effect or the level left
[5] = species on record: Mus musculus; experiment: Antiangiogenic activity in BALB/c mouse assessed as assessed as reduction in CD31-positive microvessel density in ear tissue at 2 uM measured after 6 days by fluorescence microscopic analysis; type: functional, organism-based; settings: time 6.0 day
[6] = biological target: T1, Tubulin (Homo sapiens) (UniProt P68371+Q9H4B7+P0DPH7+P68366+Q13509+Q71U36+P04350+Q3ZCM7+P07437+P68363+Q9BQE3+Q6PEY2+Q13885+Q9BVA1+Q9BUF5); experiment: Induction of microtubule depolymerization in HUVEC assessed as assessed as microtubule network abnormalities at 250 nM incubated for 6 hrs by […] based confocal microscopic analysis; type: tissue-based
[7] = Stability in simulated intestinal fluid at pH 6.8 assessed as parent compound remaining after 2 hrs; type: ADME; settings: read-out: Stability
[8] = species on record: Mus musculus; experiment: Antiangiogenic activity in BALB/c mouse assessed as assessed as reduction in CD31-positive microvessel density in ear tissue at 250 nM measured after 6 days by fluorescence microscopic analysis; type: functional, organism-based; settings: time 6.0 day
[9] = test system: HUVEC; experiment: Antiangiogenic activity against HUVEC cells assessed as inhibition of cell migration measured after 12 hrs by scratch wound closure assay relative to control; type: functional, Homo sapiens
[10] = Tmax in Sprague-Dawley rat at 25 mg/kg, IM measured up to 48 hrs; type: ADME, organism-based; settings: in vivo
[11] = Intrinsic clearance in rat liver microsomes; type: ADME, Microsome
[12] = test system: HUVEC; experiment: Vascular disruptive effect in HUVEC cells assessed as reduction in tube formation at 250 nM measured after 3 to 24 hrs by calcein-AM staining based fluorescence microscopic analysis; type: functional, cell-based; settings: Homo sapiens, time 3-24 hrs
[13] = Stability in culture media assessed as compound remaining at 250 to 500 nM measured up to 24 hrs; type: physicochemical; settings: dose 250-500 nM, read-out: Stability
[14] = test system: HUVEC; experiment: Downregulation of p-Src expression in HUVEC cells at 250 nM measured after 6 hrs by Western blot analysis; type: functional, cell-based; settings: Homo sapiens
[15] = Elimination rate constant in Sprague-Dawley rat at 25 mg/kg, IM measured up to 48 hrs; type: ADME, organism-based; settings: in vivo
[16] = test system: MDA-MB-468; experiment: Antitumor activity against human MDA-MB-468 cells xenografted in CD-1 mouse assessed as reduction in tumor size at 30 mg/kg, iv administered once daily for 21 days; type: functional, organism-based; settings: time 21.0 day
[17] = Metabolic stability in rat liver microsomes assessed as half life; type: ADME, Microsome
[18] = Cmax in Sprague-Dawley rat at 25 mg/kg, IM measured up to 48 hrs; type: ADME, organism-based; design: route intramuscular, dose 25 mg/kg, time <=48; settings: in vivo
[19] = Stability in simulated gastric fluid at pH 1.2 assessed as parent compound remaining after 2 hrs; type: ADME; settings: read-out: Stability
[20] = Metabolic stability in rat liver microsomes assessed as dissociation rate constant; type: ADME, Microsome
[21] = test system: HUVEC; experiment: Downregulation of ICAM-1 expression in HUVEC cells at 250 nM measured after 6 hrs by Western blot analysis; type: functional, cell-based; settings: Homo sapiens
[22] = test system: HUVEC; experiment: Downregulation of p-Akt expression in HUVEC cells at 250 nM measured after 6 hrs by Western blot analysis; type: functional, cell-based; settings: Homo sapiens
[23] = Clearance in Sprague-Dawley rat at 25 mg/kg, IM measured up to 48 hrs; type: ADME, organism-based; settings: in vivo
[24] = species on record: Mus musculus; experiment: Antiangiogenic activity in BALB/c mouse assessed as reduction in neovascularization by measuring reduction in hemoglobin concentration at 250 nM by matrigel plug assay; type: functional, organism-based
[25] = test system: HUVEC; experiment: Inhibition of tube formation in HUVEC at 50 to 100 nM measured up to 12 hrs by calcein-AM staining based fluorescence microscopic analysis; type: functional, cell-based; settings: Homo sapiens, dose 50-100 nM, time hrs <=12
[26] = biological target: Vascular endothelial growth factor receptor 2 (Homo sapiens) (UniProt P35968); experiment: Inhibition of VEGFR2 phosphorylation in VEGF-induced HUVEC cells pretreated at 0.5 to 20 uM by Western blot analysis; type: cell-based; settings: dose 0.5-20 µM
[27] = test system: HUVEC; experiment: Induction of F-actin depolymerization in HUVEC assessed as loss of endothelial cell morphology at 250 nM incubated for 6 hrs by phalloidin staining based confocal microscopic analysis; settings: Homo sapiens
[28] = test system: HUVEC; experiment: Antiangiogenic activity against VEGF-stimulated HUVEC cells assessed as reduction in endothelial sprouting tubules incubated for 3 days by Cytodex-3 beads based inverted microscopic analysis; type: functional, cell-based; settings: Homo sapiens, dose 250-1000 nM, time 3.0 day
[29] = test system: HUVEC; experiment: Inhibition of tube formation in HUVEC measured up to 12 hrs by calcein-AM staining based fluorescence microscopic analysis; type: functional, cell-based; settings: Homo sapiens, dose 250-10000 nM, time hrs <=12
[30] = Apparent volume of distribution in Sprague-Dawley rat at 25 mg/kg, IM measured up to 48 hrs; type: ADME, organism-based; settings: in vivo
[31] = test system: HUVEC; experiment: Effect on cell cycle distribution in HUVEC cells assessed as accumulation of cells in G2 phase at 250 nM measured after 24 hrs by propidium iodide staining based flow cytometry analysis (Rvb= 1.67%); type: functional, Homo sapiens
[32] = biological target: T1, Tubulin (Homo sapiens); experiment: Induction of microtubule depolymerization in HUVEC assessed as assessed as plasma membrane blebbing at 250 nM incubated for 6 hrs by […] based confocal microscopic analysis; type: cell membranes
[33] = test system: HUVEC; experiment: Induction of F-actin depolymerization in HUVEC assessed as loss of F-actin continuity at 250 nM incubated for 6 hrs by phalloidin staining based confocal microscopic analysis; type: tissue-based; settings: Homo sapiens
[34] = Half life in Sprague-Dawley rat at 25 mg/kg, IM measured up to 48 hrs; type: ADME, organism-based; settings: in vivo
[35] = test system: HUVEC; experiment: Antiangiogenic activity against HUVEC cells assessed as inhibition of cell migration measured after 24 hrs by scratch wound closure assay; type: functional, cell-based; settings: Homo sapiens
[36] = test system: HUVEC; experiment: Induction of F-actin depolymerization in HUVEC assessed as plasma membrane blebbing at 250 nM incubated for 6 hrs by phalloidin staining based confocal microscopic analysis; type: cell membranes; settings: Homo sapiens
[37] = biological target: T1, Tubulin (Homo sapiens); experiment: Induction of microtubule depolymerization in HUVEC assessed as assessed as loss of endothelial cell morphology at 250 nM incubated for 6 hrs by […] based confocal microscopic analysis
[38] = test system: HUVEC; experiment: Cytotoxicity against HUVEC assessed as reduction in cell proliferation at 250 nM measured after 24 hrs by MTT assay; type: cell-based; settings: human, 0.25 µM
[39] = Stability in rat plasma assessed as compound remaining measured up to 2 hrs; type: ADME, cell-free; settings: read-out: Stability

Sequence of Vascular endothelial growth factor receptor 2 (Homo sapiens) (P35968 whole entry): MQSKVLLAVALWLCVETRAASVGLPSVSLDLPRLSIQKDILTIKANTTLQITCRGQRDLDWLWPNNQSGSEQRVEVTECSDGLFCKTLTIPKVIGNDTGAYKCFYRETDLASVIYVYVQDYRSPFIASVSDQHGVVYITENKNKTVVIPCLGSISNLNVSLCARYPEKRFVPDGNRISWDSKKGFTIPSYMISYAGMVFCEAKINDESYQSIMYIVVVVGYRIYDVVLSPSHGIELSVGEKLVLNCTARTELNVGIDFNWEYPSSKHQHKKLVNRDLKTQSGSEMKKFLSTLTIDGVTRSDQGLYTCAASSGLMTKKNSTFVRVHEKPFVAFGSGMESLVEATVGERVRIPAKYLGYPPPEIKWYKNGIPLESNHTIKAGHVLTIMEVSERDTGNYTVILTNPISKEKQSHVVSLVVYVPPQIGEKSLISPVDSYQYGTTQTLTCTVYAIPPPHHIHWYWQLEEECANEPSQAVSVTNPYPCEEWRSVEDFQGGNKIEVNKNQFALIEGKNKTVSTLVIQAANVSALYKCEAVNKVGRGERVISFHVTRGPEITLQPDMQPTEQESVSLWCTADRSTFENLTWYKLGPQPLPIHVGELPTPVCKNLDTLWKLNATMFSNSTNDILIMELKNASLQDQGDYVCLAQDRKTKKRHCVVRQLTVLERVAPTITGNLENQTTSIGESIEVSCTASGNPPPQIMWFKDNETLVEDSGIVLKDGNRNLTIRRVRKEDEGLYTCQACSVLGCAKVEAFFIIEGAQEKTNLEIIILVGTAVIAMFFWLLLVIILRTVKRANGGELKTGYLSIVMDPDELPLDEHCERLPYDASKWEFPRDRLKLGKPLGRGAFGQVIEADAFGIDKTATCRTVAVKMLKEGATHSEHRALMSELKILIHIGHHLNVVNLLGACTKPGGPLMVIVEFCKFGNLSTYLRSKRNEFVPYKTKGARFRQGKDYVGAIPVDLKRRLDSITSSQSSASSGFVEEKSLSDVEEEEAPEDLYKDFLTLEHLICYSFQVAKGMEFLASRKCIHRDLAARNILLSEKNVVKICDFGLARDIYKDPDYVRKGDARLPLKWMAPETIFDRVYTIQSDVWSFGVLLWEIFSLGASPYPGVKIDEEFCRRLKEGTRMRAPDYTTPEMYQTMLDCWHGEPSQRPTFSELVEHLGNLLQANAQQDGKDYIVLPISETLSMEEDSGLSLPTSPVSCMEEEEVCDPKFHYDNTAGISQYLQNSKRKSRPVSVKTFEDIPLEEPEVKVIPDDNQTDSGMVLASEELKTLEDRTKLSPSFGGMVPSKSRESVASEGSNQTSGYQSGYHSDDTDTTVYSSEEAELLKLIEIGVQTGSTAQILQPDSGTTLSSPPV

Compound: N#Cc1c(Nc2ccc([N+](=O)[O-])cc2)sc2ccccc12
- Activity [1]: 37%
- Activity [2]: 8%

Compound: N#Cc1c(Nc2ccc(N)cc2)sc2ccccc12
- Activity [1]: 51%
- Activity [2]: 1%

Compound: CCN(CC)CCNC(=O)c1c(C)[nH]c(/C=C2\C(=O)Nc3ccc(F)cc32)c1C [SUNITINIB]
- Activity [3]: Active
- Activity [4]: 43%
- Activity [5]: Active

Compound: COc1ccc(Nc2sc3c(OC)cc(OC)cc3c2C#N)cc1
- Activity [2]: 63%

Compound: N#Cc1c(Nc2ccc(O)cc2)sc2ccccc12
- Activity [6]: Active
- remaining at 2 h [7]: 89%
- Activity [8]: Active
- inhibition (INH) [9]: 80%
- Tmax [10]: 0.5 h
- CLH [11]: 0.74 L/h
- Activity [12]: Active
- remaining at 24 h, up to 0.5 µM [13]: 78.3%
- Activity [14]: Active
- k el at 48 h [15]: 3.47e-05 s⁻¹
- Activity [16]: Active
- half-life [17]: 1.87 h
- Cmax [18]: 442 ng/mL
- remaining at 2 h [19]: 90.4%
- Kdiss [20]: 0.000103 s⁻¹
- Activity [1]: 2%
- Activity [21]: inactive
- Activity [22]: Active
- CL/F [23]: 205 mL/min/kg
- Activity [24]: Active
- inhibition [25]: inactive
- inhibition [26]: Active
- Activity [27]: Active
- Activity [28]: Dose-Dependent Effect
- inhibition [29]: Dose-Dependent Effect
- Vz [30]: 107.16 L/kg
- Activity [31]: 1.58%
- Activity [32]: Active
- Activity [33]: Active
- half-life [34]: 6 h
- inhibition [35]: inactive
- Activity [36]: Active
- Activity [37]: Active
- Activity [2]: 25%
- Activity [38]: Non-Toxic
- remaining at 2 h [39]: 89.1%

Compound: N#Cc1c(Nc2ccccc2)sc2cc3c(cc12)OCO3
- Activity [2]: 75%

Compound: COc1cccc(Nc2sc3ccccc3c2C#N)c1
- Activity [2]: 81%

Compound: N#Cc1c(Nc2ccccc2O)sc2ccccc12
- Activity [1]: 68%
- Activity [2]: 19%

Compound: N#Cc1c(Nc2cccc(O)c2)sc2ccccc12
- Activity [1]: 60%
- Activity [2]: 0%

Compound: COc1cc2sc(Nc3ccc(O)cc3)c(C#N)c2cc1OC
- Activity [1]: 73%
- Activity [2]: 0%

Compound: N#Cc1c(Nc2ccccc2)sc2ccccc12
- Activity [2]: 81%

Compound: COc1c2c(cc3c(C#N)c(Nc4ccccc4)sc13)OCO2
- Activity [2]: 81%

Compound: COc1ccc(Nc2sc3ccccc3c2C#N)cc1
- Activity [2]: 57%

Compound: COc1cc2sc(Nc3ccccc3)c(C#N)c2cc1OC
- Activity [2]: 77%

Compound: N#Cc1c(Nc2ccc(F)cc2)sc2ccccc12
- Activity [1]: 58%
- Activity [2]: 25%

Compound: COc1cc2sc(Nc3cccc(O)c3)c(C#N)c2cc1OC
- Activity [1]: 67%
- Activity [2]: 11%

Compound: N#Cc1c(Nc2ccc(Cl)cc2)sc2ccccc12
- Activity [1]: 45%
- Activity [2]: 45%

Compound: N#Cc1c(Nc2ccccc2)sc2cc3ccccc3cc12
- Activity [2]: 50%

Compound: CC(=O)N(c1ccc(O)cc1)c1sc2ccccc2c1C#N
- Activity [1]: 59%
- Activity [2]: 36%

Compound: N#Cc1c(Nc2ccc(C(F)(F)F)cc2)sc2ccccc12
- Activity [1]: 65%
- Activity [2]: 24%
